Data on 29 compounds can be found in US20240400555A1 (Initial Therapeutics, Inc., priority 2023, published 2024).

The first test has as its system MV-4-11 cells. Briefly: Cell Viability Assay in MV-4-11 Cells. Type of test: cell-based. To be noted: Homo sapiens, MV4-11, 72 h. Put shortly:
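Luminescent ATP read-out (CellTiter-Glo) after 72 h compound treatment of MV-4-11 leukaemia cells (7,000 per well, IMDM plus 10% FBS). Values expressed relative to DMSO control and derived by four-parameter non-linear regression.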
A word on the IC50: it is the concentration needed to halve the response being measured. `Cc1cccc2ccnc(N(C(=O)c3ccc(C#N)cc3-c3cccnc3)[C@@H]3CCCNC3)c12` [Example 334, 4-cyano-N-(8-methyl-1-isoquinolyl)-N-[(3R)-3-piperidyl]-2-(3-pyridyl)benzamide]: the IC50 is > 10000 nM.
`Cn1nnc(-c2ccc(C(=O)N(c3nccc4cc(-c5cn[nH]c5)ccc34)[C@@H]3CCCNC3)cc2)n1` [Example 395, (R)—N-(6-(1H-pyrazol-4-yl)isoquinolin-1-yl)-4-(2-methyl-2H-tetrazol-5-yl)-N-(piperidin-3-yl)benzamide]: the IC50 came to 230 nM.

Still in this test, the particulars now being: Homo sapiens, MV4-11, 72 h, MV-4-11 cells, 72 h, Cell-Titer Glo; read-out: IC50.
Turning to `Cc1cccc2ccnc(N(C(=O)c3ccc(-c4ccc[nH]c4=O)cc3)[C@@H]3CCCNC3)c12` [Example 332, (R)—N-(8-methylisoquinolin-1-yl)-4-(2-oxo-1,2-dihydropyridin-3-yl)-N-(piperidin-3-yl)benzamide], the IC50 worked out at 2700 nM.
`Cc1cccc2ccnc(N(C(=O)c3ccc(Nc4nccc(N5CCCOCC5)n4)cc3F)[C@@H]3CCCNC3)c12` [Example 944, (R)-4-(4-(1,4-oxazepan-4-yl)pyrimidin-2-ylamino)-2-fluoro-N-(8-methylisoquinolin-1-yl)-N-(piperidin-3-yl)benzamide]: the IC50 is 46 nM.
The same measure, in the same setting: the value for `Cc1cccc2ccnc(N(C(=O)c3ccc(Nc4nccc(C5CCNCC5)n4)cc3F)[C@@H]3CCCNC3)c12` [Example 662, (R)-2-fluoro-N-(8-methylisoquinolin-1-yl)-N-(piperidin-3-yl)-4-((4-(piperidin-4-yl)pyrimidin-2-yl)amino)benzamide] was 400 nM; that for `CNC(=O)c1nc(-c2cc3c(N(C(=O)c4ccc(-n5nnc6cccnc65)cc4F)[C@@H]4CCCNC4)nccc3s2)cs1` [Example 527, 4-[4-[[2-fluoro-4-(triazolo[4,5-b]pyridin-3-yl)benzoyl]-[(3R)-3-piperidyl]amino]thieno[3,2-c]pyridin-2-yl]-N-methyl-thiazole-2-carboxamide] was 200 nM; that for `Cn1cc(-c2ccc(C(=O)N(c3nccc4cc(Cc5ccccc5)ccc34)[C@@H]3CCCNC3)c(F)c2)nn1` [Example 609, (R)—N-(6-benzylisoquinolin-1-yl)-2-fluoro-4-(1-methyl-1H-1,2,3-triazol-4-yl)-N-(piperidin-3-yl)benzamide] was 400 nM.
Same read-out and setting: the value for `Cc1nnc(-c2ccc(C(=O)N(c3nccc4scc(C)c34)[C@@H]3CCCNC3)c(F)c2)o1` [Example 699, (R)-2-fluoro-4-(5-methyl-1,3,4-oxadiazol-2-yl)-N-(3-methylthieno[3,2-c]pyridin-4-yl)-N-(piperidin-3-yl)benzamide] was 130 nM.
The same measure, in the same setting: under `Cc1cccc2ccnc(N(C(=O)c3ccc(Nc4nccc(N5CCOCC5c5cccnc5)n4)cc3F)[C@@H]3CCCNC3)c12` (stereo partly drawn) [Example 958, 2-fluoro-N-(8-methylisoquinolin-1-yl)-N—((R)-piperidin-3-yl)-4-((4-(3-(pyridin-3-yl)morpholino)pyrimidin-2-yl)amino)benzamide] stands 47 nM.
For `Cc1cccc2ccnc(N(C(=O)c3ccc(Nc4nccc(N5CCOCC5CN(C)C)n4)cc3F)[C@@H]3CCCNC3)c12` (stereo partly drawn) [Example 956, 4-(4-(3-((dimethylamino)methyl)morpholino)pyrimidin-2-ylamino)-2-fluoro-N-(8-methylisoquinolin-1-yl)-N—((R)-piperidin-3-yl)benzamide], the IC50 came out at 360 nM.
Turning to `O=C(c1ccc(-c2cnn3c2CCCC3)cc1F)N(c1nccc2sc(C#CCCCO)cc12)[C@@H]1CCCNC1` [Example 839, 2-fluoro-N-[2-(5-hydroxypent-1-ynyl)thieno[3,2-c]pyridin-4-yl]-N-[(3R)-3-piperidyl]-4-(4,5,6,7-tetrahydropyrazolo[1,5-a]pyridin-3-yl)benzamide], the IC50 stood at 1500 nM.
Turning to `CCOC(=O)/C=C/c1cc2c(N(C(=O)c3ccc(-n4nnc5cccnc54)cc3F)[C@@H]3CCCNC3)nccc2s1` [Example 501, ethyl (E)-3-[4-[[2-fluoro-4-(triazolo[4,5-b]pyridin-3-yl)benzoyl]-[(3R)-3-piperidyl]amino]thieno[3,2-c]pyridin-2-yl]prop-2-enoate], the IC50 turned out to be 800 nM.
As to `Cc1cccc2ccnc(N(C(=O)c3ccc(Nc4nccc(-c5ccccn5)n4)cc3F)[C@@H]3CCCNC3)c12` [Example 728, (R)-2-fluoro-N-(8-methylisoquinolin-1-yl)-N-(piperidin-3-yl)-4-((4-(pyridin-2-yl)pyrimidin-2-yl)amino)benzamide], the IC50 amounted to 86 nM.
Still for that read-out and setting: under `Cc1cccc2ccnc(N(C(=O)c3ccc(Nc4nccc(N5CCNC(=O)C5)n4)cc3F)[C@@H]3CCCNC3)c12` [Example 938, (R)-2-fluoro-N-(8-methylisoquinolin-1-yl)-4-((4-(3-oxopiperazin-1-yl)pyrimidin-2-yl)amino)-N-(piperidin-3-yl)benzamide] stands 290 nM.
In the case of `Cc1cc(-c2cc3c(N(C(=O)c4ccc(-n5nnc6cccnc65)cc4F)[C@@H]4CCCNC4)nccc3s2)cc(C)n1` [Example 571, N-[2-(2,6-dimethyl-4-pyridyl)thieno[3,2-c]pyridin-4-yl]-2-fluoro-N-[(3R)-3-piperidyl]-4-(triazolo[4,5-b]pyridin-3-yl)benzamide], the IC50 amounted to 63 nM.
With `Cc1cccc2ccnc(N(C(=O)c3ccc(Nc4nccc(NCCO)n4)cc3F)[C@@H]3CCCNC3)c12` [Example 734, (R)-2-fluoro-4-((4-((2-hydroxyethyl)amino)pyrimidin-2-yl)amino)-N-(8-methylisoquinolin-1-yl)-N-(piperidin-3-yl)benzamide], the IC50 came out at 81 nM.
On to `Cc1csc2ccnc(N(C(=O)c3ccc(-c4cn(CCC#N)nn4)cc3F)[C@@H]3CCCNC3)c12` [Example 881, 4-[1-(2-cyanoethyl)triazol-4-yl]-2-fluoro-N-(3-methylthieno[3,2-c]pyridin-4-yl)-N-[(3R)-3-piperidyl]benzamide], for which the IC50 stood at 150 nM.
The same measure, in the same setting: the value for `COC(=O)[C@H]1CCCN1c1ccnc(Nc2ccc(C(=O)N(c3nccc4cccc(C)c34)[C@@H]3CCCNC3)c(F)c2)n1` [Example 965, methyl (2-((3-fluoro-4-((8-methylisoquinolin-1-yl)((R)-piperidin-3-yl)carbamoyl)phenyl)amino)pyrimidin-4-yl)-D-prolinate] was 130 nM; that for `COCCn1cc(-c2ccc(C(=O)N(c3nccc4scc(C)c34)[C@@H]3CCCNC3)cc2)nn1` [Example 639, (R)-4-(1-(2-methoxyethyl)-1H-1,2,3-triazol-4-yl)-N-(3-methylthieno[3,2-c]pyridin-4-yl)-N-(piperidin-3-yl)benzamide] was 150 nM.
On the same count and under the same terms, the value for `Cc1nnc(-c2ccc(C(=O)N(c3nccc4cc(Cl)ccc34)[C@@H]3CCCNC3)c(F)c2)o1` [Example 788, (R)—N-(6-chloroisoquinolin-1-yl)-2-fluoro-4-(5-methyl-1,3,4-oxadiazol-2-yl)-N-(piperidin-3-yl)benzamide] was 970 nM; that for `Cc1cccc2ccnc(N(C(=O)c3ccc(Nc4nccc(-n5ccnc5)n4)cc3F)[C@@H]3CCCNC3)c12` [Example 724, (R)-4-((4-(1H-imidazol-1-yl)pyrimidin-2-yl)amino)-2-fluoro-N-(8-methylisoquinolin-1-yl)-N-(piperidin-3-yl)benzamide] was 56 nM.
Take `Cc1nnc(-c2ccc(C(=O)N(c3nccc4cc(Cl)cc(C)c34)[C@@H]3CCCNC3)cc2)o1` [Example 772, (R)—N-(6-chloro-8-methylisoquinolin-1-yl)-4-(5-methyl-1,3,4-oxadiazol-2-yl)-N-(piperidin-3-yl)benzamide]: the IC50 worked out at 130 nM.
Regarding `Cc1cccc2ccnc(N(C(=O)c3ccc(-c4nnc(CCC#N)s4)cc3F)[C@@H]3CCCNC3)c12` [Example 879, 4-[5-(2-cyanoethyl)-1,3,4-thiadiazol-2-yl]-2-fluoro-N-(8-methyl-1-isoquinolyl)-N-[(3R)-3-piperidyl]benzamide], the IC50 came to 110 nM.
Same read-out and setting: the value for `Cc1cccc2ccnc(N(C(=O)c3ccc(Nc4nccc(NC5CCOCC5)n4)cc3F)[C@@H]3CCCNC3)c12` [Example 954, (R)-2-fluoro-N-(8-methylisoquinolin-1-yl)-N-(piperidin-3-yl)-4-((4-((tetrahydro-2H-pyran-4-yl)amino)pyrimidin-2-yl)amino)benzamide] was 31 nM.
Same read-out and setting: the value for `Cc1cc(C)c2c(N(C(=O)c3ccc(-c4nnc(C)o4)nc3)[C@@H]3CCCNC3)nccc2c1` [Example 642, (R)—N-(6,8-dimethylisoquinolin-1-yl)-6-(5-methyl-1,3,4-oxadiazol-2-yl)-N-(piperidin-3-yl)nicotinamide] was 160 nM; that for `Cn1cc(-c2ccc(C(=O)N(c3nccc4sc(Cc5cccnc5)cc34)[C@@H]3CCCNC3)c(F)c2)nn1` [Example 488, 2-fluoro-4-(1-methyltriazol-4-yl)-N-[(3R)-3-piperidyl]-N-[2-(3-pyridylmethyl)thieno[3,2-c]pyridin-4-yl]benzamide] was 650 nM; that for `Cc1nnc(-c2ccc(C(=O)N(c3nccc4c(C)ccc(C)c34)[C@@H]3CCCNC3)cc2)s1` [Example 878, N-(5,8-dimethyl-1-isoquinolyl)-4-(5-methyl-1,3,4-thiadiazol-2-yl)-N-[(3R)-3-piperidyl]benzamide] was 560 nM.
Turning to `NC(=O)c1ccc(-c2cc3c(N(C(=O)c4ccc(-n5cnc6ccccc65)cc4F)[C@@H]4CCCNC4)nccc3s2)cc1` [Example 826, 4-(benzimidazol-1-yl)-N-[2-(4-carbamoylphenyl)thieno[3,2-c]pyridin-4-yl]-2-fluoro-N-[(3R)-3-piperidyl]benzamide], the IC50 stood at 4400 nM.

Still in this test, the particulars now being: MV-4-11 cells, 72 h, Cell-Titer Glo; read-out: IC50.
For the compound `Cn1cc(-c2ccc(C(=O)N(c3nccc4cc(-c5ccccc5)ccc34)[C@@H]3CCCNC3)c(F)c2)nn1` [Example 579, (R)-2-fluoro-4-(1-methyl-1H-1,2,3-triazol-4-yl)-N-(6-phenylisoquinolin-1-yl)-N-(piperidin-3-yl)benzamide], the IC50 was 220 nM.
